Measured values taken from patent US12454529B2, “Piperazine cyclic ureas” (SIRONAX LTD., priority 2020, dated 2025).

System: HT-29 cells
Assay: HT-29 cell necrosis/necroptosis inhibition (TNF-α + SMAC mimetic + zVAD-FMK; CellTiter-Glo cell viability)
Type: cell-based
Conditions: HT-29 cells, TNF-α 10 ng/ml + SMAC mimetic 6 μM + zVAD-FMK 10 μM, 20 hours; geometric mean, 10 points in duplicate; read-out: EC50 (Cell activity; Necrosis/Necroptosis Inhibitory Activity, Compounds 143-323)
Method in brief: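 HT-29 cells (~5,000/well) were switched to FBS-free McCOY's 5A holding TNF-α (10 ng/ml), SMAC mimetic (6 μM) and zVAD-FMK (10 μM), then dosed with a 10-point 1:3 series for 20 h at 37 °C. CellTiter-Glo luminescence gave viability; geometric mean EC50 from duplicates.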

Structure (SMILES)	EC50 [nM]
Cc1nc(C)n(-c2nc(N3CCN(C(=O)N4N=CCC4c4cnc(C)s4)CC3)ncc2F)n1 (stereo not drawn) [Compound 214, (4-(4-(3,5-dimethyl-1H-1,2,4-triazol-1-yl)-5-fluoropyrimidin-2-yl)piperazin-1-yl)(5-(2-methylthiazol-5-yl)-4,5-dihydro-1H-pyrazol-1-yl)methanone]	0.1 to 100

Same assay, conditions: Homo sapiens, HT-29, 20 h, read-out: EC50 (Cell activity; Necrosis/Necroptosis Inhibitory Activity, Compounds 1-142)

Structure (SMILES)	EC50 [nM]
Cc1nnnn1-c1ccnc(N2CCN(C(=O)N3N=CC[C@H]3c3cncc(C#N)c3)CC2)n1 [Compound 99, (S)-5-(1-(4-(4-(5-methyl-1H-tetrazol-1-yl)pyrimidin-2-yl)piperazine-1-carbonyl)-4,5-dihydro-1H-pyrazol-5-yl)nicotinonitrile]	0.1 to 100

Same assay, conditions: Homo sapiens; HT-29 cells, TNF-α 10 ng/ml + SMAC mimetic 6 μM + zVAD-FMK 10 μM, 20 hours; geometric mean, 10 points in duplicate; read-out: EC50 (Cell activity; Necrosis/Necroptosis Inhibitory Activity, Compounds 1-142)

Structure (SMILES)	EC50 [nM]
N#Cc1cccc([C@@H]2CC=NN2C(=O)N2CCN(c3nccc(-c4cc[nH]n4)n3)CC2)c1 [Compound 37, (S)-3-(1-(4-(4-(1H-pyrazol-3-yl)pyrimidin-2-yl)piperazine-1-carbonyl)-4,5-dihydro-1H-pyrazol-5-yl)benzonitrile]	0.1 to 100
O=C(N1CCN(c2nccc(-c3nnn[nH]3)n2)CC1)N1N=CC[C@H]1c1cc(F)cc(F)c1 [Compound 4, (S)-(4-(4-(1H-tetrazol-5-yl)pyrimidin-2-yl)piperazin-1-yl)(5-(3,5-difluorophenyl)-4,5-dihydro-1H-pyrazol-1-yl)methanone]	0.1 to 100
N#Cc1cccc([C@@H]2CC=NN2C(=O)N2CCN(c3nccc(-n4cc(C(N)=O)cn4)n3)CC2)c1 [Compound 106, (S)-1-(2-(4-(5-(3-cyanophenyl)-4,5-dihydro-1H-pyrazole-1-carbonyl)piperazin-1-yl)pyrimidin-4-yl)-1H-pyrazole-4-carboxamide]	0.1 to 100
Cc1nnn(C)c1-c1nc(N2CCN(C(=O)N3N=CC[C@H]3c3cc(F)cc(F)c3)CC2)ncc1F [Compound 71, (S)-(5-(3,5-difluorophenyl)-4,5-dihydro-1H-pyrazol-1-yl)(4-(4-(1,4-dimethyl-1H-1,2,3-triazol-5-yl)-5-fluoropyrimidin-2-yl)piperazin-1-yl)methanone]	0.1 to 100
Cc1nn(CC2CCCCO2)c(C)c1-c1nc(N2CCN(C(=O)N3N=CC[C@H]3c3cc(F)cc(C#N)c3)CC2)ncc1F (stereo partly drawn) [Compound 137, 3-((58)-1-(4-(4-(3,5-dimethyl-1-((tetrahydro-2H-pyran-2-yl)methyl)-1H-pyrazol-4-yl)-5-fluoropyrimidin-2-yl)piperazine-1-carbonyl)-4,5-dihydro-1H-pyrazol-5-yl)-5-fluorobenzonitrile]	0.1 to 100
Cc1nn(CCO)c(C)c1-c1nc(N2CCN(C(=O)N3N=CC[C@H]3c3cc(F)cc(F)c3)CC2)ncc1F [Compound 118, (S)-(5-(3,5-difluorophenyl)-4,5-dihydro-1H-pyrazol-1-yl)(4-(5-fluoro-4-(1-(2-hydroxyethyl)-3,5-dimethyl-1H-pyrazol-4-yl)pyrimidin-2-yl)piperazin-1-yl)methanone]	0.1 to 100
Cn1nccc1-c1nc(N2CCN(C(=O)N3N=CC[C@H]3c3cc(F)cc(F)c3)CC2)ncc1F [Compound 28, (S)-(5-(3,5-difluorophenyl)-4,5-dihydro-1H-pyrazol-1-yl)(4-(5-fluoro-4-(1-methyl-1H-pyrazol-5-yl)pyrimidin-2-yl)piperazin-1-yl)methanone]	0.1 to 100
Cc1n[nH]c(C)c1-c1nc(N2CCN(C(=O)N3N=CC[C@H]3c3cc(F)cc(F)c3)CC2)ncc1F [Compound 93, (S)-(5-(3,5-difluorophenyl)-4,5-dihydro-1H-pyrazol-1-yl)(4-(4-(3,5-dimethyl-1H-pyrazol-4-yl)-5-fluoropyrimidin-2-yl)piperazin-1-yl)methanone]	0.1 to 100
NC(=O)c1cnn(-c2ccnc(N3CCN(C(=O)N4N=CC[C@H]4c4cccc(F)c4)CC3)n2)c1 [Compound 17, (S)-1-(2-(4-(5-(3-fluorophenyl)-4,5-dihydro-1H-pyrazole-1-carbonyl)piperazin-1-yl)pyrimidin-4-yl)-1H-pyrazole-4-carboxamide]	0.1 to 100
O=C(N1CCN(c2ncc(F)c(-c3cnn(CCO)c3)n2)CC1)N1N=CC[C@H]1c1cc(F)cc(F)c1 [Compound 60, (S)-(5-(3,5-difluorophenyl)-4,5-dihydro-1H-pyrazol-1-yl)(4-(5-fluoro-4-(1-(2-hydroxyethyl)-1H-pyrazol-4-yl)pyrimidin-2-yl)piperazin-1-yl)methanone]	0.1 to 100
NC(=O)c1cnn(-c2nc(N3CCN(C(=O)N4N=CC[C@H]4c4ccccc4)CC3)ncc2F)c1 [Compound 111, (S)-1-(5-fluoro-2-(4-(5-phenyl-4,5-dihydro-1H-pyrazole-1-carbonyl)piperazin-1-yl)pyrimidin-4-yl)-1H-pyrazole-4-carboxamide]	0.1 to 100
Cc1nc(C)n(-c2ccnc(N3CCN(C(=O)N4N=CC[C@H]4c4cc(F)cc(F)c4)CC3)n2)n1 [Compound 100, (S)-(5-(3,5-difluorophenyl)-4,5-dihydro-1H-pyrazol-1-yl)(4-(4-(3,5-dimethyl-1H-1,2,4-triazol-1-yl)pyrimidin-2-yl)piperazin-1-yl)methanone]	0.1 to 100
Cn1ncnc1-c1nc(N2CCN(C(=O)N3N=CC[C@H]3c3cc(F)cc(F)c3)CC2)ncc1F [Compound 65, (S)-(5-(3,5-difluorophenyl)-4,5-dihydro-1H-pyrazol-1-yl)(4-(5-fluoro-4-(1-methyl-1H-1,2,4-triazol-5-yl)pyrimidin-2-yl)piperazin-1-yl)methanone]	0.1 to 100

Same assay, conditions: Homo sapiens; HT-29 cells, TNF-α 10 ng/ml + SMAC mimetic 6 μM + zVAD-FMK 10 μM, 20 hours; geometric mean, 10 points in duplicate; read-out: EC50 (Cell activity; Necrosis/Necroptosis Inhibitory Activity, Compounds 143-323)

Structure (SMILES)	EC50 [nM]
Cc1nn(-c2ccnc(N3CCN(C(=O)N4N=CC[C@H]4c4cncc(F)c4)CC3)n2)c(C)c1Cl [Compound 287, (S)-(4-(4-(4-chloro-3,5-dimethyl-1H-pyrazol-1-yl)pyrimidin-2-yl)piperazin-1-yl)(5-(5-fluoropyridin-3-yl)-4,5-dihydro-1H-pyrazol-1-yl)methanone]	0.1 to 100
Cc1ncc(C2CC=NN2C(=O)N2CCN(c3cc(-c4c(C)cnn4C)ncc3F)CC2)s1 (stereo not drawn) [Compound 292, (4-(2-(1,4-dimethyl-1H-pyrazol-5-yl)-5-fluoropyridin-4-yl)piperazin-1-yl)(5-(2-methylthiazol-5-yl)-4,5-dihydro-1H-pyrazol-1-yl)methanone]	100 to 1000
Cc1nc(C)n(-c2nc(N3CCN(C(=O)N4N=CCC4c4cnc(C)s4)CC3)ncc2Cl)n1 (stereo not drawn) [Compound 223, (4-(5-chloro-4-(3,5-dimethyl-1H-1,2,4-triazol-1-yl)pyrimidin-2-yl)piperazin-1-yl)(5-(2-methylthiazol-5-yl)-4,5-dihydro-1H-pyrazol-1-yl)methanone]	0.1 to 100
Cn1ncnc1-c1nc(N2CCN(C(=O)N3N=CC[C@H]3c3cc(F)cc(C#N)c3)CC2)ncc1Cl [Compound 166, (S)-3-(1-(4-(5-chloro-4-(1-methyl-1H-1,2,4-triazol-5-yl)pyrimidin-2-yl)piperazine-1-carbonyl)-4,5-dihydro-1H-pyrazol-5-yl)-5-fluorobenzonitrile]	0.1 to 100
Cc1cnc(C2CC=NN2C(=O)N2CCN(c3ncc(F)c(-c4nnc(C)s4)n3)CC2)s1 (stereo not drawn) [Compound 316]	0.1 to 100
Cc1cnn(C)c1-c1nc(N2CCN(C(=O)N3N=CC[C@H]3c3cc(F)cc(C#N)c3)CC2)sc1CO [Compound 266, (S)-3-(1-(4-(4-(1,4-dimethyl-1H-pyrazol-5-yl)-5-(hydroxymethyl)thiazol-2-yl)piperazine-1-carbonyl)-4,5-dihydro-1H-pyrazol-5-yl)-5-fluorobenzonitrile]	1000 to 10000
Cn1nc(CO)nc1-c1ccnc(N2CCN(C(=O)N3N=CC[C@H]3c3cc(F)cc(C#N)c3)CC2)n1 [Compound 171, (S)-3-fluoro-5-(1-(4-(4-(3-(hydroxymethyl)-1-methyl-1H-1,2,4-triazol-5-yl)pyrimidin-2-yl)piperazine-1-carbonyl)-4,5-dihydro-1H-pyrazol-5-yl)benzonitrile]	0.1 to 100
Cc1cnn(C)c1-c1ccc(F)c(N2CCN(C(=O)N3N=CCC3c3ccccn3)CC2)n1 (stereo not drawn) [Compound 297, (4-(6-(1,4-dimethyl-1H-pyrazol-5-yl)-3-fluoropyridin-2-yl)piperazin-1-yl)(5-(pyridin-2-yl)-4,5-dihydro-1H-pyrazol-1-yl)methanone]	0.1 to 100
Cn1nc(C#N)nc1-c1nc(N2CCN(C(=O)N3N=CCC3c3cc(F)cc(F)c3)CC2)ncc1F (stereo not drawn) [Compound 228, 5-(2-(4-(5-(3,5-difluorophenyl)-4,5-dihydro-1H-pyrazole-1-carbonyl)piperazin-1-yl)-5-fluoropyrimidin-4-yl)-1-methyl-1H-1,2,4-triazole-3-carbonitrile]	0.1 to 100
Cc1ncc(C2CC=NN2C(=O)N2CCN(c3nc(-c4c(C)cnn4C)ncc3F)CC2)s1 (stereo not drawn) [Compound 162, (4-(2-(1,4-dimethyl-1H-pyrazol-5-yl)-5-fluoropyrimidin-4-yl)piperazin-1-yl)(5-(2-methylthiazol-5-yl)-4,5-dihydro-1H-pyrazol-1-yl)methanone]	0.1 to 100
[2H]C1(c2cc(F)cc(F)c2)CC=NN1C(=O)N1CCN(c2ncc(F)c(-n3nc(C)nc3C)n2)CC1 (stereo not drawn) [Compound 262, (5-(3,5-difluorophenyl)-4,5-dihydro-1H-pyrazol-1-yl-5-d)(4-(4-(3,5-dimethyl-1H-1,2,4-triazol-1-yl)-5-fluoropyrimidin-2-yl)piperazin-1-yl)methanone]	0.1 to 100
Cc1nnc(-c2nc(N3CCN(C(=O)N4N=CC[C@H]4c4cc(F)cc(C#N)c4)CC3)ncc2F)o1 [Compound 188, (S)-3-fluoro-5-(1-(4-(5-fluoro-4-(5-methyl-1,3,4-oxadiazol-2-yl)pyrimidin-2-yl)piperazine-1-carbonyl)-4,5-dihydro-1H-pyrazol-5-yl)benzonitrile]	0.1 to 100
